Numbers after ± are expanded uncertainties. Each block holds one compound with its values, some of them ahead of it.
Assays:
[1] = wn = mass fraction of the nth substance listed; conditions: 298.15 K, 100 kPa, Liquid, Pycnometric method
[2] = refractive index (Na D-line) (dimensionless); wn = mass fraction of the nth substance listed; conditions: 298.15 K, 100 kPa, Liquid, Standard Abbe refractometry

mass density ([1]; w1 = 0.6463): 2009.2 ± 24 kg/m3
refractive index ([2]; w1 = 0.6463): 1.4095 ± 0.002
SMILES: O=S(=O)([O-])[O-].[Cs+].[Cs+] [cesium sulfate] + O

mass density ([1]; w1 = 0.3365): 1363.1 ± 24 kg/m3
refractive index ([2]; w1 = 0.3365): 1.3649 ± 0.002
SMILES: O=S(=O)([O-])[O-].[Rb+].[Rb+] [rubidium sulfate] + O

mass density ([1]; w1 = 0.218): 1183 ± 24 kg/m3
refractive index ([2]; w1 = 0.218): 1.3628 ± 0.002
SMILES: O=S(=O)([O-])[O-].[Na+].[Na+] [sodium sulfate] + O

— the NIST ThermoML archive (doi:10.1021/acs.jced.8b00693)
